Where a name gives a salt, the structure may show the parent alone.

For data set [1], the target named is recombinant human GST-Syk (Homo sapiens (Human), UniProt P43405). The data set is described as follows: Homogeneous Time-Resolved Fluorescence (HTRF) assay for the recombinant human Syk enzyme. The note with it: GST-hSyk 5 pM, ATP 25 μM, 10-dose titration 10 μM to 0.508 nM; values below lowest test concentration given as <0.50. It is filed as biochemical. As to the method:
Biological Assay Homogeneous Time-Resolved Fluorescence (HTRF) Assay for the Recombinant Human Syk Enzyme
A recombinant GST-hSyk fusion protein was used to measure potency of compounds to inhibit human Syk activity. […] Final volume of the reaction was 10 μL. Phosphorylation of the peptide was allowed to proceed for 45′ at rt. To quench the reaction and detect the phosphorylated product, 2 nM of a Europium-anti-phosphotyrosine antibody (Perkin Elmer #AD0161) and 70 nM SA-APC (Perkin-Elmer #CR130-100) were added together in 15 mM Tris pH 7.5, 40 mM EDTA, 0.01% tween 20. Final volume of the quenching solution was 10 μL. The resulting HTRF signal was measured after 30 minutes on a EnVision (Perkin-Elmer) reader using a time-resolved fluorescence protocol.

For the next data set, the system named is PGD2. As to conditions: dosed intranasally, phase I/II study, allergic rhinitis; cited from earlier work.
The conditions of data set [2]: phase II clinical trial, allergic rhinitis; cited from earlier work.

What is called IC50 is the concentration that inhibits the measured activity by half. On to `Cc1cc(Nc2cc(C(F)(F)F)ccn2)nc(-c2cnc([C@@]3(O)CCCc4cc(C(=O)NS(=O)(=O)C5CC5)ccc43)s2)c1` [Example 22A, (R)-N-(cyclopropylsulfonyl)-5-hydroxy-5-[5-(4-methyl-6-{[4-(trifluoromethyl)pyridin-2-yl]amino}pyridin-2-yl)-1,3-thiazol-2-yl]-5,6,7,8-tetrahydronaphthalene-2-carboxamide], for which, in data set [1], the IC50 is < 0.5 nM.

`Cc1cc(Nc2cc(N3CCNCC3)ccn2)nc(-c2cnc(C3(O)CCCc4cc(C(=O)O)ccc43)s2)c1` (stereo not drawn) [Example 1D, 5-hydroxy-5-[5-(4-methyl-6-{[4-(piperazin-1-yl)pyridin-2-yl]amino}pyridin-2-yl)-1,3-thiazol-2-yl]-5,6,7,8-tetrahydronaphthalene-2-carboxylic acid]: in data set [1], the half-maximal inhibitory concentration (IC50) is < 0.5 nM.

As for `Cc1cc(Nc2cc(-n3ccc(C)n3)ccn2)nc(-c2cnc(C3(O)CCCc4cc(C(=O)O)ccc43)s2)c1` (stereo not drawn) [Example 1J, 5-hydroxy-5-[5-(4-methyl-6-{[4-(3-methyl-1H-pyrazol-1-yl)pyridin-2-yl]amino}pyridin-2-yl)-1,3-thiazol-2-yl]-5,6,7,8-tetrahydronaphthalene-2-carboxylic acid], in data set [1], the IC50 is < 0.5 nM.

For `CCc1ccnc(Nc2cc(C)cc(-c3cnc(C4(O)CCCc5cc(C(=O)O)ccc54)s3)n2)c1` (stereo not drawn) [Example 1P, 5-(5-{6-[(4-ethylpyridin-2-yl)amino]-4-methylpyridin-2-yl}-1,3-thiazol-2-yl)-5-hydroxy-5,6,7,8-tetrahydronaphthalene-2-carboxylic acid], the IC50 in data set [1] was < 0.5 nM.

As to `Cc1cc(Nc2cc(-n3cccn3)ccn2)nc(-c2cnc(C3(O)CCCc4cc(C(=O)O)ccc43)s2)c1` (stereo not drawn) [Example 1F, 5-hydroxy-5-[5-(4-methyl-6-{[4-(1H-pyrazol-1-yl)pyridin-2-yl]amino}pyridin-2-yl)-1,3-thiazol-2-yl]-5,6,7,8-tetrahydronaphthalene-2-carboxylic acid], the IC50 in data set [1] is < 0.5 nM.

`Cc1ccnc(Nc2cc(C)cc(-c3cnc(C4(O)CCCc5cc(C(=O)O)ccc54)s3)n2)c1` (stereo not drawn) [Example 1H, 5-hydroxy-5-(5-{4-methyl-6-[(4-methylpyridin-2-yl)amino]pyridin-2-yl}-1,3-thiazol-2-yl)-5,6,7,8-tetrahydronaphthalene-2-carboxylic acid]: in data set [1], the IC50 is < 0.5 nM.

For `Cc1cc(Nc2cc(N3CCN(CCN)CC3)ccn2)nc(-c2cnc(C3(O)CCCc4cc(C(=O)O)ccc43)s2)c1` (stereo not drawn) [Example 1C, 5-{5-[6-({4-[4-(2-aminoethyl)piperazin-1-yl]pyridin-2-yl}amino)-4-methylpyridin-2-yl]-1,3-thiazol-2-yl}-5-hydroxy-5,6,7,8-tetrahydronaphthalene-2-carboxylic acid], in data set [1], the IC50 was < 0.5 nM.

For `Cc1cc(Nc2cc(C(F)(F)F)ccn2)nc(-c2cnc(C3(O)CCCCc4c(C(=O)O)cccc43)s2)c1` (single isomer, unassigned) [Example 15G, (R or S)-5-hydroxy-5-[5-(4-methyl-6-{[4-(trifluoromethyl)pyridin-2-yl]amino}pyridin-2-yl)-1,3-thiazol-2-yl]-6,7,8,9-tetrahydro-5H-benzo[7]annulene-1-carboxylic acid], the IC50 in data set [1] was < 0.5 nM.

`Cc1cc(Nc2cc(OC3CCOC3)ccn2)nc(-c2cnc(C3(O)CCCc4cc(C(=O)O)ccc43)s2)c1` (stereo not drawn) [Example 1T, 5-hydroxy-5-[5-(4-methyl-6-{[4-(tetrahydrofuran-3-yloxy)pyridin-2-yl]amino}pyridin-2-yl)-1,3-thiazol-2-yl]-5,6,7,8-tetrahydronaphthalene-2-carboxylic acid]: the IC50 in data set [1] was < 0.5 nM.

On to `Cc1cc(Nc2cc(OC(C)(C)C)ccn2)nc(-c2cnc([C@@]3(O)CCCc4cc(C(=O)O)ccc43)s2)c1` [Example 1, (R)-5-(5-{6-[(4-Tert-butoxypyridin-2-yl)amino]-4-methylpyridin-2-yl}-1,3-thiazol-2-yl)-5-hydroxy-5,6,7,8-tetrahydronaphthalene-2-carboxylic acid, ammonia salt], for which the IC50 in data set [1] was < 0.5 nM.

On to `Cc1cc(Nc2cc(-c3nnc(C)o3)ccn2)nc(-c2cnc(C3(O)CCCc4cc(C(=O)O)ccc43)s2)c1` (stereo not drawn) [Example 1S, 5-hydroxy-5-[5-(4-methyl-6-{[4-(5-methyl-1,3,4-oxadiazol-2-yl)pyridin-2-yl]amino}pyridin-2-yl)-1,3-thiazol-2-yl]-5,6,7,8-tetrahydronaphthalene-2-carboxylic acid], for which, in data set [1], the IC50 is < 0.5 nM.

On to `Cc1cc(Nc2cc(C3CC3)ccn2)nc(-c2cnc(C3(O)CCCc4cc(C(=O)O)ccc43)s2)c1` (stereo not drawn) [Example 1U, 5-(5-{6-[(4-cyclopropylpyridin-2-yl)amino]-4-methylpyridin-2-yl}-1,3-thiazol-2-yl)-5-hydroxy-5,6,7,8-tetrahydronaphthalene-2-carboxylic acid], for which, in data set [1], the IC50 is < 0.5 nM.

Consider `Cc1cc(Nc2cc(C3CCC3)ccn2)nc(-c2cnc(C3(O)CCCc4cc(C(=O)O)ccc43)s2)c1` (stereo not drawn) [Example 1K, 5-(5-{6-[(4-cyclobutylpyridin-2-yl)amino]-4-methylpyridin-2-yl}-1,3-thiazol-2-yl)-5-hydroxy-5,6,7,8-tetrahydronaphthalene-2-carboxylic acid], for which, in data set [1], the IC50 is < 0.5 nM.

Turning to `Cc1cc(Nc2cc(C(F)(F)F)ccn2)nc(-c2cnc(C3(O)CCCCc4c(C(=O)O)cccc43)s2)c1` (single isomer, unassigned) [Example 15H, (R or S)-5-hydroxy-5-[5-(4-methyl-6-{[4-(trifluoromethyl)pyridin-2-yl]amino}pyridin-2-yl)-1,3-thiazol-2-yl]-6,7,8,9-tetrahydro-5H-benzo[7]annulene-1-carboxylic acid], the IC50 in data set [1] is < 0.5 nM.

Take `Cc1cc(Nc2cc(C(C)C)ccn2)nc(-c2cnc(C3(O)CCCc4cc(C(=O)O)ccc43)s2)c1` (stereo not drawn) [Example 1V, 5-hydroxy-5-[5-(4-methyl-6-{[4-(1-methylethyl)pyridin-2-yl]amino}pyridin-2-yl)-1,3-thiazol-2-yl]-5,6,7,8-tetrahydronaphthalene-2-carboxylic acid]: the IC50 in data set [1] is < 0.5 nM.

As to `Cc1cc(Nc2cc(OC(C)C)ccn2)nc(-c2cnc(C3(O)CCCc4cc(C(=O)O)ccc43)s2)c1` (stereo not drawn) [Example 1R, 5-hydroxy-5-[5-(4-methyl-6-{[4-(propan-2-yloxy)pyridin-2-yl]amino}pyridin-2-yl)-1,3-thiazol-2-yl]-5,6,7,8-tetrahydronaphthalene-2-carboxylic acid], the IC50 in data set [1] is < 0.5 nM.

In the case of `Cc1cc(Nc2cc(-n3cc(C)cn3)ccn2)nc(-c2cnc(C3(O)CCCc4cc(C(=O)O)ccc43)s2)c1` (stereo not drawn) [Example 1E, 5-hydroxy-5-[5-(4-methyl-6-{[4-(4-methyl-1H-pyrazol-1-yl)pyridin-2-yl]amino}pyridin-2-yl)-1,3-thiazol-2-yl]-5,6,7,8-tetrahydronaphthalene-2-carboxylic acid], the IC50 in data set [1] was < 0.5 nM.

For `CCCc1ccnc(Nc2cc(C)cc(-c3cnc(C4(O)CCCc5cc(C(=O)O)ccc54)s3)n2)c1` (stereo not drawn) [Example 1M, 5-hydroxy-5-(5-{4-methyl-6-[(4-propylpyridin-2-yl)amino]pyridin-2-yl}-1,3-thiazol-2-yl)-5,6,7,8-tetrahydronaphthalene-2-carboxylic acid], in data set [1], the half-inhibitory concentration (IC50) is < 0.5 nM.

With `Cc1cc(Nc2cc(C(F)(F)F)ccn2)nc(-c2cnc([C@@]3(O)CCCc4cc(C(=O)Nc5nnn[nH]5)ccc43)s2)c1` [Example 22E, (R)-5-hydroxy-5-[5-(4-methyl-6-{[4-(trifluoromethyl)pyridin-2-yl]amino}pyridin-2-yl)-1,3-thiazol-2-yl]-N-1H-tetrazol-5-yl-5,6,7,8-tetrahydronaphthalene-2-carboxamide], the IC50 in data set [1] was < 0.5 nM.

For the compound `Oc1cccc(Nc2ncc(F)c(Nc3cccc(O)c3)n2)c1` [Example R112], in the data set on PGD2, the clinical safety result is listed as “safe across a range of indicators” and the “decrease in PGD2” value is given as “statistically significant decrease”. In addition, in data set [2], the efficacy versus placebo result is listed as “lack of efficacy”.

With `CCOc1ccnc(Nc2cc(C)cc(-c3cnc(C4(O)CCCc5cc(C(=O)O)ccc54)s3)n2)c1` (stereo not drawn) [Example 1N, 5-(5-{6-[(4-ethoxypyridin-2-yl)amino]-4-methylpyridin-2-yl}-1,3-thiazol-2-yl)-5-hydroxy-5,6,7,8-tetrahydronaphthalene-2-carboxylic acid], the IC50 in data set [1] was < 0.5 nM.

For the compound `Cc1cc(Nc2cc(C(F)F)ccn2)nc(-c2cnc(C3(O)CCCc4cc(C(=O)O)ccc43)s2)c1` (stereo not drawn) [Example 1A, 5-[5-(6-{[4-(difluoromethyl)pyridin-2-yl]amino}-4-methylpyridin-2-yl)-1,3-thiazol-2-yl]-5-hydroxy-5,6,7,8-tetrahydronaphthalene-2-carboxylic acid], the IC50 in data set [1] is < 0.5 nM.

Values taken from patent publication US8796310B2, “Amino-pyridine-containing spleen tyrosine kinase (SYK) inhibitors” (Merck Sharp & Dohme Corp., priority 2011, dated 2014).
